Test results taken from publication PMC10787358 (Science translational medicine, 2023).

How the values were obtained:
[1] = system: SARS-CoV-2; parameters: species or system hACE2 transgenic mice; conditions: mouse, in vivo
[2] = system: SARS-CoV-2 Beta and Delta variants; format: cell-based
[3] = system: SARS-CoV-2 WT, Beta, Delta, Omicron BA.2; format: cell-based; conditions: UDCA 10 μM, ML364 4 μM, MS102 4 μM, 48 h

| Compound | therapeutic effectiveness against SARS-CoV-2 infection [1] | inhibition of authentic SARS-CoV-2 variants [2] | inhibition of infection of Calu-3 cells by authentic SARS-CoV-2 (TCID50) [3] |
| --- | --- | --- | --- |
| Cc1ccc(S(=O)(=O)Nc2cc(C(F)(F)F)ccc2C(=O)Nc2nc(-c3ccccc3)cs2)cc1 [ML364] | substantial therapeutic potential | broad inhibition |  |
| C[C@H](CCC(=O)O)[C@H]1CC[C@H]2[C@@H]3[C@@H](O)C[C@@H]4C[C@H](O)CC[C@]4(C)[C@H]3CC[C@]12C [UDCA, ursodeoxycholic acid] |  |  | exhibited efficacy |
| Cc1ccc(S(=O)(=O)Nc2ccc(C(F)(F)F)cc2C(=O)Nc2nc(-c3ccc(Br)cc3)cs2)cc1 [MS102] |  |  | superior activity |
